A short description of assay [1]: Inhibition of Trypanosoma brucei cathepsin B expressed in Pichia pastoris.
Assay [2] concerns the target Rhodesain (Trypanosoma brucei rhodesiense, UniProt Q95PM0). Put plainly: Inhibition of Trypanosoma brucei rhodesiense rhodesain.
Assay [3] has as its target Procathepsin L (Homo sapiens, UniProt P07711). Put plainly: Inhibition of human liver cathepsin L.
Assay [4] concerns the target Cathepsin B (Homo sapiens, UniProt P07858). The assay can be described thus: Inhibition of human liver cathepsin B.
Assay [5] relates to Trypanosoma brucei. The assay can be described thus: Antitrypanosomal activity against Trypanosoma brucei after 48 hrs. In kind it is functional, organism-based.
The test system of assay [6] is BJ. Put plainly: Cytotoxicity against human BJ cells after 72 hrs by alamar blue assay. The assay is classed as ADME, cell-based.
Assay [7] has as its system Raji. Put plainly: Cytotoxicity against human Raji cells after 72 hrs by alamar blue assay. The assay is classed as ADME, cell-based.
Assay [8] concerns HepG2. The assay can be described thus: Cytotoxicity against human HepG2 cells after 72 hrs by alamar blue assay. In kind it is ADME, cell-based. The note with it: HepG2, 72 h.
For assay [9], the system named is HEK293. Put plainly: Cytotoxicity against human HEK293 cells after 72 hrs by alamar blue assay. The assay is classed as ADME, cell-based. The note with it: HEK293, 72 h.

A value given as a limit tells only on which side of the number the result lay.

Procathepsin L, sequence (P07711 whole entry): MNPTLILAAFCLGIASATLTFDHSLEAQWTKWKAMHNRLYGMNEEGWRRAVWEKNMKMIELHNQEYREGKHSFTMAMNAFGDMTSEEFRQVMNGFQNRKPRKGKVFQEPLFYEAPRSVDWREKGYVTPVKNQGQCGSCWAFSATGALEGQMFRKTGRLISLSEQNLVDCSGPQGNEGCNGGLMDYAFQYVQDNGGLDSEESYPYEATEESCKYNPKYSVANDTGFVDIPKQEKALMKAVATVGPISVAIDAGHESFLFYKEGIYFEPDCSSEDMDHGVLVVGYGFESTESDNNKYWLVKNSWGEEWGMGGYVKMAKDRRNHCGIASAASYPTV
Rhodesain, sequence (Q95PM0 whole entry): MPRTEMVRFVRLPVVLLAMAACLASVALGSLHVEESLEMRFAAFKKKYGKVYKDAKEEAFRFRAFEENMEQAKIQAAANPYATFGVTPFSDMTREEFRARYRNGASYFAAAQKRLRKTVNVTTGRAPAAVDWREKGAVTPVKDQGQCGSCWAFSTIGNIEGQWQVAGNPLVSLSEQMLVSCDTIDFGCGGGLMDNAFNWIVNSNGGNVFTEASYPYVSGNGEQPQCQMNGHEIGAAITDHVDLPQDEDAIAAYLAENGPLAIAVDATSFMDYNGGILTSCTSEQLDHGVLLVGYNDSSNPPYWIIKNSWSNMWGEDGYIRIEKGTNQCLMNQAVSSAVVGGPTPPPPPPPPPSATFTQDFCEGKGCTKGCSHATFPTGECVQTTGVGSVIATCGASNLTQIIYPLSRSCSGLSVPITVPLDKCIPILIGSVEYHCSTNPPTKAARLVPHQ

On to `COc1ncc(-c2cccc(CNc3nc(C#N)nc4c3ncn4CCCO)c2)c(OC)n1`, for which the half-maximal inhibitory concentration (IC50) in assay [1] is 2.9 µM; in assay [2], 4 µM; in assay [3], 6 µM; in assay [4], more than 15 µM. The 50% effective concentration (EC50) in assay [5] was 5.9 µM; in assay [6] it was more than 10 µM; in assay [7] it was more than 10 µM; in assay [8], more than 10 µM; in [9], more than 10 µM.

For the origin of these results see ChEMBL document CHEMBL1155239, “Structure-guided development of selective TbcatB inhibitors” (J Med Chem, 2009).
